Source: ChEMBL document CHEMBL5038625, “Application of the dual-tail approach for the design and synthesis of novel Thiopyrimidine-Benzenesulfonamide hybrids as selective carbonic anhydrase inhibitors” (Eur J Med Chem, 2022)

Tested on: LOX IMVI
Test: Antiproliferative activity against human LOX IMVI cells assessed as cell growth inhibition at 10 uM incubated for 24 hrs by sulforhodamine B assay
Assay type: functional
Settings: read-out: GI

COc1ccc(OC)c(-c2nc(SCC(=O)c3ccc(Br)cc3)nc(Nc3ccc(S(N)(=O)=O)cc3)c2C#N)c1
inhibition of growth at 10 µM: 67.4%
